Measurements published in patent US12472263B2, “Ophthalmic formulation” (PANOPTES PHARMA GES.M.B.H., priority 2018, dated 2025).
In brackets after ≈: the same amount, converted by molar mass. Structures can show the parent of a compound that is named as a salt. Where two headings read alike, the source gives them in different places.

Legend:
[1] = Thermodynamic solubility in PBS pH 7.4 and in 5% HSA in PBS; type: physicochemical; conditions: for solubility thermodynamic: thermodynamic from solid; for Increase in solubility: from PBS to 5% HSA in PBS
Procedure: The process was initiated by adding 1 mL of defined buffer to about 1 mg of the solid compound. The solutions were mixed for at least 15 hours. If there was no undissolved substance in the solution visible, an additional portion of the solid compound was added and the solution was further mixed for at least 15 hours. This step was repeated until a saturated solution in equilibrium was achieved; excess solid was clearly visible. The total mixing time until equilibrium should exceed 40 hours. After reaching the equilibrium, the solutions were centrifuged for 10 minutes at 14,000 rpm.

[2] = target: T1, HSA (human serum albumin) (Homo sapiens, UniProt P02768); experiment: Binding of different pharmaceutically active compounds to albumin, RED assay; type: in vitro ADME; conditions: 5 h, pH 7.4
T1 sequence (P02768 25-609): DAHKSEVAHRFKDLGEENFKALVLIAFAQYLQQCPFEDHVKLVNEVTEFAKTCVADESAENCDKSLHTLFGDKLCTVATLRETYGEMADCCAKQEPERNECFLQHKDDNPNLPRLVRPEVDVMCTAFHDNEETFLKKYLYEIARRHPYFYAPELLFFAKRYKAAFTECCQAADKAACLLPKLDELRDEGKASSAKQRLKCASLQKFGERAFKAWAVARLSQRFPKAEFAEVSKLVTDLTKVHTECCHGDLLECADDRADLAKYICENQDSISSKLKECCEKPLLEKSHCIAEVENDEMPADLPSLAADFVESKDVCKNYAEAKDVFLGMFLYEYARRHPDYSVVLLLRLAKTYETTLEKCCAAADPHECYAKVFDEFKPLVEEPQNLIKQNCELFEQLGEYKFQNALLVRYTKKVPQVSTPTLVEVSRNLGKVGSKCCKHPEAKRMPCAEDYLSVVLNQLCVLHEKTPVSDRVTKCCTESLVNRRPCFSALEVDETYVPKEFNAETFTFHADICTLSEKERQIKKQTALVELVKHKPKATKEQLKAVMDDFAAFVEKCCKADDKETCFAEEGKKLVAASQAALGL
Procedure: (§1) For analysis of binding of different pharmaceutically active compounds to HSA (human serum albumin) a rapid equilibrium dialysis (RED) assay from Thermo Scientific™ was conducted. Different pharmaceutically active compounds (in saturated solutions as prepared in Example 1) were applied to the donor side of the device. PBS pH 7.4 was used as acceptor medium. The time required to achieve equilibrium in the dialysis was determined to 5 hours. The formulations were incubated at 23° C. at 300 rpm. The unbound fraction was allowed to permeate through the dialysis membrane into the acceptor buffer chamber. After 5 hours equilibration time, the unbound fraction was determined by analyzing the amount of the active compound in each compartment via LC/MS.
The amount of free compound was calculated according to the equation:
The amount of bound compound is calculated as % bound=100−% free

[3] = target: T1, HSA (human serum albumin); experiment: Binding of PP-001 to albumin, rapid equilibrium dialysis (RED) assay; type: in vitro ADME
Procedure: as §1, with “PP-001” for “different pharmaceutically active compounds”, “PP-001 formulations” for “pharmaceutically active compounds (in saturated solutions as prepared in Example 1)”, “device and 50 mM phosphate buffer” for “device. PBS”, “time” for “time,”, “PP-001” for “the active compound”, “HPLC/DAD.” for “LC/MS.”
(§2) To investigate nonspecific binding of PP-001 to the RED Device Inserts, a solution of 0.05 mg/mL PP-001 in 50 mM phosphate buffer pH 7.4 was used as a control sample. PP-001 concentration in the acceptor compartment was >82% of the concentration in the donor compartment. Only minor non-specific binding of PP-001 to the RED device was determined.
(§3) The amount of free PP-001 was calculated according to the equation:
(§4) The amount of bound PP-001 is calculated as % bound=100−% free

[4] = target: human serum albumin (Homo sapiens, UniProt P02768); experiment: as above; type: in vitro ADME; conditions: PP-001/human serum albumin formulation, pH 7.4; formulation dosed in the rabbit PK study
human serum albumin, sequence (P02768 25-609): as above
Procedure: as §1, with “PP-001” for “different pharmaceutically active compounds”, “PP-001 formulations” for “pharmaceutically active compounds (in saturated solutions as prepared in Example 1)”, “device and 50 mM phosphate buffer” for “device. PBS”, “time” for “time,”, “PP-001” for “the active compound”, “HPLC/DAD.” for “LC/MS.”
as §2, §3, §4

[5] = Aqueous solubility in phosphate buffer pH 7.4, without and with 5% albumin; type: physicochemical; conditions: thermodynamic from solid
Procedure: As used herein, “solubility in aqueous solution of at least X mg/mL” refers to thermodynamic solubility of a compound in an aqueous 50 mM phosphate buffer or phosphate buffered saline (PBS) solution at pH 7.4 at least X mg/mL. PP-001 has a solubility of 0.8 mg/mL in an aqueous phosphate buffer solution at pH 7.4. However, if the aqueous buffer solution comprises 5% albumin PP-001 has solubility of at least 5 mg/mL.

[6] = PK study in rabbits after topical ocular administration; type: in vivo, New Zealand White rabbits
Procedure: To confirm that PP-001/albumin formulations deliver sufficient PP-001 to target tissues (i.e. conjunctiva and cornea), a pharmacokinetic study was performed in New Zealand White rabbits.
10 female animals of ca. 3 months age were dosed one drop (35 μL drop size) of the formulation 1 (3 mg/ml PP-001) in both eyes at time point 0. Animals were sacrificed 5 or 30 minutes or 2, 4, or 12 hours after dosing and ocular tissues and plasma were collected. PP-001 concentration in plasma and tissues were determined by a validated HPLC-MS analytical method.

[7] = system: uveitis; conditions: cited from earlier work
[8] = aqueous buffer, PBS pH 7.4, saturated, LC/MS, read-out: Thermodynamic solubility in PBS pH 7.4
[9] = plasma or biological fluid, 5% HSA in PBS pH 7.4, saturated, LC/MS, read-out: Thermodynamic solubility in 5% HSA in PBS pH 7.4

solubility thermodynamic [1, 8] [µg/mL] | Increase in solubility [1] | solubility thermodynamic [1, 9] [µg/mL] | % bound ([2]; isolated protein) [%] | Molecule | other results
421 | 96% | 827 | 80.9 | CN1CCCC(n2nc(Cc3ccc(Cl)cc3)c3ccccc3c2=O)CC1 (stereo not drawn) [Azelastine HCl] | 
1230 (≈ 2970 µM) | 144% | 3010 (≈ 7230 µM) | 77.6 | CCNC(=O)CCC/C=C\C[C@@H]1[C@@H](/C=C/[C@@H](O)CCc2ccccc2)[C@H](O)C[C@@H]1O [Bimatoprost] | 
273 (≈ 712 µM) | 42% | 387 (≈ 1010 µM) | 70.3 | CCN[C@H]1CN(CCCOC)S(=O)(=O)c2sc(S(N)(=O)=O)cc21 [Brinzolamide] | 
2340 | 218% | 7440 | 64.8 | CNCC(O)c1ccc(OC(=O)C(C)(C)C)c(OC(=O)C(C)(C)C)c1 (stereo not drawn) [Dipivefrin HCl] | 
483 (≈ 935 µM) | 195% | 1420 (≈ 2750 µM) | 95.7 | CC(=O)O[C@H]1C[C@@]2(C)[C@@H](C[C@@H](O)[C@H]3[C@@]4(C)CC[C@@H](O)[C@@H](C)[C@@H]4CC[C@@]32C)/C1=C(\CCC=C(C)C)C(=O)O [Fusidic Acid] | 
3 |  | 83 | 75.4 | C[C@@H]1CN([C@H]2CC[C@](C#N)(c3ccc(F)cc3)CC2)CC[C@]1(C(=O)O)c1ccccc1 [Levocabastine HCl] | Increase in solubility ([1]; HCl): 2,333%^; Increase in solubility ([1]; listed as levocabastine HCl, HCl): 2,333%
9 (≈ 35.4 µM) | 619% | 64 (≈ 252 µM) | 92.1 | NC(=O)Cc1cccc(C(=O)c2ccccc2)c1N [Nepafenac] | 
48 (≈ 100 µM) |  | 2910 (≈ 6070 µM) | 99.9 | O=C(Nc1c(F)c(F)c(-c2cccc(OC(F)(F)F)c2)c(F)c1F)c1ccsc1C(=O)O [PP-001, 3-(2,3,5,6-tetrafluoro-3′-trifluoromethoxy-biphenyl-4-ylcarbamoyl)-thiophene-2-carboxylic acid] | % bound [2]: ~100%; PP-001 concentration in the acceptor compartment as % of the donor compartment (nonspecific binding control) ([3]; 0.05 mg/mL PP-001 in 50 mM phosphate buffer pH 7.4, no albumin): > 82%; binding of PP-001 to albumin (in words) ([3]; even at high PP-001 concentrations): nearly completely bound to albumin; fraction unbound at 5 h, 3 mg/ml [4]: < 0.05; solubility ([5]; aqueous buffer with 5% albumin, aqueous with cosolvent or surfactant or cyclodextrin, buffer pH 7.4 with 5% albumin, read-out: solubility in aqueous buffer solution comprising 5% albumin): ≥ 5000 µg/mL; solubility ([5]; aqueous phosphate buffer, aqueous buffer, phosphate buffer pH 7.4, read-out: aqueous solubility in phosphate buffer pH 7.4): 800 µg/mL (≈ 1670 µM); Cmax ([6]; female, New Zealand White, rabbit, plasma, topical, 35 μL drop of 3 mg/ml per eye, one 35 μL drop of formulation 1 (3 mg/ml PP-001) in both eyes): < 9 ng/mL; absorption of PP-001 by ocular tissues (conjunctiva, cornea) ([6]; one 35 μL drop of formulation 1 (3 mg/ml PP-001) in both eyes): substantial amounts of PP-001 are absorbed by ocular tissues; persistence in the cornea ([6]; one 35 μL drop of formulation 1 (3 mg/ml PP-001), up to 12 hours after dosing): highly persistent in the cornea; relapses of experimental autoimmune uveitis ([7]; therapeutic approach): prevents relapses; clinical and histological symptoms of uveitis ([7]; two different rat models for uveitis): completely ameliorates clinical and histological symptoms
 |  |  | 94.3 | CC(=O)OCC(=O)[C@@]1(O)CC[C@H]2[C@@H]3CCC4=CC(=O)C=C[C@]4(C)[C@H]3[C@@H](O)C[C@@]21C [Prednisolone acetate] | 
 | >10,000% |  |  | Netarsudil mesylate | Thermodynamic solubility in 5% HSA in PBS pH 7.4 ([1]; 5% HSA in PBS pH 7.4, saturated, LC/MS): 0.140 mg/mL; Thermodynamic solubility in PBS pH 7.4 ([1]; PBS pH 7.4, saturated, LC/MS): <0.000051 mg/mL; Increase in solubility ([1]; listed as netarsudil mesylate): > 274,763%
